This is an account of results in patent publication US5852001A, “Method and compounds for inhibition of ribonucleases” (The Endowment for Research in Human Biology, priority 1996, dated 1998).

For test [1], the target named is T1, RNase A (Bos taurus, UniProt P61823).
T1 sequence (P61823 27-150): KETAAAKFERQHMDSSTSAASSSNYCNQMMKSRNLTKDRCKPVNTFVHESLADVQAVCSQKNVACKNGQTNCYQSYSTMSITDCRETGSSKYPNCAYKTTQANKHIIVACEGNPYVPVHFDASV
The test is described as follows: Inhibition of RNase A activity toward CpA, HPLC method.
Experimental: Assays were performed in 60 μl of 0.2M Mes (pH 5.9) containing 50 μg/ml nuclease-free bovine serum albumin (obtained from Worthington), 20 μM CpA, and 23-320 pM RNase A. After 14-96 minutes of incubation at 25° C., substrate and products were quantitated by C18 /HPLC with a 20 minute linear gradient from 0 to 5.6% acetonitrile in 0.1% trifluoroacetic acid at a flow rate of 1.5 ml/min recording absorbance at 254 nm. Values of Km /kcat were then calculated (according to the method of Shapiro et al., 1986, Biochemistry 25:7255-7264) and plotted vs. the inhibitor concentration [I]. The Ki value is the -[I] intercept of a three- or four-point plot of Km /kcat, vs. [I] and was obtained by linear regression.

The next test deals with hRNase-2 (Homo sapiens, UniProt P10153). The test is described as follows: Inhibition of human ribonuclease hRNase-2, method of Example IX. The test is classed as biochemical.
Chain of hRNase-2 (P10153 28-161): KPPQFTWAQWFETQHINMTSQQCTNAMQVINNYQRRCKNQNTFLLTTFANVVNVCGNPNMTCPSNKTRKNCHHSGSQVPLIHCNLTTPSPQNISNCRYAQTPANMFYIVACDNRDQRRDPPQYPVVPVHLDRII
In test [2] the target is T1, RNase A. The test is classed as biochemical, bovine. The settings on record: for pKi: 25° C.
Experimental: Inhibition was assessed from the dependence of 1/v0 on [I], where v0 represents the velocity measured during the initial 5-10% of the enzymatic reaction and [I] is the inhibitor concentration. Since the substrate concentration used in these assays is well below Km, the -[I] intercept of such a plot should closely approximate Ki for simple inhibition mechanisms.
In another test the target is T2, hRNase-4 (Homo sapiens, UniProt P34096).
T2 sequence (P34096 29-147): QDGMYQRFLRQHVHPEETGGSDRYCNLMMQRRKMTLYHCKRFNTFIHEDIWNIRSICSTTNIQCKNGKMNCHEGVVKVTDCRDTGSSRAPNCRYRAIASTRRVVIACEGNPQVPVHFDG
The test is described as follows: Inhibition of human ribonuclease hRNase-4, method of Example IX.

Test [3] concerns the target T1, RNase A. The note with it: pH 7; read-out: inhibition constant Ki (reported); cited from earlier work.
The target in test [4] is T1, RNase A. Description: RNA protection assay (tRNA, agarose gel electrophoresis). The test is classed as biochemical, bovine. The settings on record: 0.5 mM inhibitor, 0.2 nM RNase A, pH 7.0, 20 minutes, 25° C. The procedure:
3 μg of tRNA were incubated in 30 μl of 20 mM Hepes, 130 mM NaCl (pH 7.0) containing 30 μg/ml bovine serum albumin, 0.2 nM RNase A and the inhibitor. After 20 minutes of incubation at 25° C., the reaction mixture was analyzed by agarose gel electrophoresis and staining with ethidium bromide. This assay was chosen since a single endonucleolytic cleavage in a polymeric RNA molecule can produce a large variation of the molecular size which can be easily detected by agarose gel electrophoresis.

Where [5] appears, read: 0.2M Hepes pH 7.0, 75 μM CpG, read-out: Ki at indicated pH, pH 7.
[6] abbreviates: 0.2M Hepes pH 8.0, 75 μM CpG, read-out: Ki at indicated pH, pH 8.
The mark [7] stands for this setting: 0.2M Mes pH 5.9, 75 μM CpG, read-out: Ki at indicated pH, pH 5.9.

pKi: −log10 of the molar value. Read-outs that look alike come from different tables or passages of the source.

Experimental for hRNase-2: (§1) Assays were performed at 25° C. with the dinucleotide cytidylyl-(3',5')-guanosine (75 μM) as substrate in 0.2M Mes (pH 5.9), 0.2M Hepes (pH 7.0), or 0.2M Hepes (pH 8.0), containing 10 μg/ml bovine serum albumin. The decrease in absorbance at 286 nm following the addition of RNase A was continuously monitored. Inhibition was assessed from the dependence of 1/v0 on [I], where v0 represents the velocity measured during the initial 5-10% of the enzymatic reaction and [I] is the inhibitor concentration. Since the substrate concentration used in these assays is well below Km, the -[I] intercept of such a plot should closely approximate Ki for simple inhibition mechanisms.
Experimental for hRNase-4: as §1

The term pKi denotes the negative decadic logarithm of the Ki, by convention in mol/L. Compound `Nc1ncnc2c1ncn2[C@@H]1O[C@H](COP(=O)(O)O)[C@@H](OP(=O)(O)O)[C@H]1O` [pAp, adenosine 3',5'-diphosphate] gave a pKi at RNase A [1] of 5.25.

For the compound `Cc1cn([C@H]2C[C@H](OP(=O)(O)OP(=O)(O)OC[C@H]3O[C@@H](n4cnc5c(N)ncnc54)[C@H](O)[C@@H]3OP(=O)(O)O)[C@@H](COP(=O)(O)O)O2)c(=O)[nH]c1=O` [pTppAp, 5'-phosphothymidine-(3'-Pβ)-5'-diphosphoadenosine-3'-phosphate], the negative-log Ki (pKi) at hRNase-2 (pH 5.9, read-out: Ki at pH 5.9, hRNase-2) was 6.30; at RNase A [2] (setting [5]), 6.74; at RNase A [2] (setting [6]), 4.55; on RNase A [2] (setting [7]), 7.28; on hRNase-4, 6.57. For the same compound, the “factor by which RNase A inhibition constant is lower than that for ppAp” value at RNase A [2] (pH 5.9) is 4.6; on RNase A [2] (pH 7), 7.2; at RNase A [2] (pH 8), 7.8.

With `Cc1cn([C@H]2C[C@H](OP(=O)(O)OP(=O)(O)OC[C@H]3O[C@@H](n4cnc5c(N)ncnc54)C[C@@H]3O)[C@@H](CO)O2)c(=O)[nH]c1=O` [TppdA, thymidine-(3'-Pβ)-5'-diphospho-2'-deoxyadenosine], the pKi on RNase A [2] (setting [7]) is 5.46.

For uridine-vanadate, at RNase A [3], the pKi was 5.00. For the same compound, the “protection of tRNA from the catalytic action of RNase A” value (“protection of tRNA” below) on RNase A [4] is recorded as “partial protection”.

On to `Nc1ncnc2c1ncn2[C@@H]1O[C@H](COP(=O)(O)OP(=O)(O)O[C@H]2C[C@H](n3ccc(=O)[nH]c3=O)O[C@@H]2COP(=O)(O)O)[C@@H](OP(=O)(O)O)[C@H]1O` [pdUppAp, 5'-phospho-2'-deoxyuridine-(3'-Pβ)-5'-diphosphoadenosine-3'-phosphate], for which the pKi on hRNase-2 is 6.66; on RNase A [2] (setting [5]), 6.68; on RNase A [2] (setting [6]), 4.66; on RNase A [2] (setting [7]), 7.46; at hRNase-4 it was 6.55. Besides, the “factor by which RNase A inhibition constant is lower than that for ppAp” value at RNase A [2] (pH 5.9) is 6.9; on RNase A [2] (pH 7), 6.2; on RNase A [2] (pH 8), 9.9.

Turning to `Nc1ccn([C@@H]2O[C@H](CO)[C@@H](O)[C@H]2OP(=O)(O)O)c(=O)n1` [2'-CMP, Cytidine 2'-monophosphate], the pKi on RNase A [1] was 5.51; at RNase A [3], 3.83. On RNase A [4], the “protection of tRNA” value is given as “partial protection”.

`Nc1ncnc2c1ncn2[C@@H]1O[C@H](COP(=O)(O)OP(=O)(O)O[C@H]2C[C@H](n3ccc(=O)[nH]c3=O)O[C@@H]2CO)[C@@H](OP(=O)(O)O)[C@H]1O` [dUppAp, 2'-deoxyuridine-(3'-Pβ)-5'-diphosphoadenosine-3'-phosphate]: the pKi on RNase A [2] (setting [5]) is 5.96; on RNase A [2] (setting [6]), 4.36; at RNase A [2] (setting [7]), 6.89.

`Cc1cn([C@H]2C[C@H](OP(=O)(O)OC[C@H]3O[C@@H](n4cnc5c(N)ncnc54)C[C@@H]3O)[C@@H](CO)O2)c(=O)[nH]c1=O` [TpdA, thymidylyl-(3'-5')-2'-deoxyadenosine]: the pKi at RNase A [1] is 2.89.

On to `Nc1ncnc2c1ncn2[C@@H]1O[C@H](COP(=O)(O)OP(=O)(O)O)[C@@H](OP(=O)(O)O)[C@H]1O` [ppAp, 5'-diphosphoadenosine-3'-phosphate], for which the pKi was 6.62 at RNase A [1]; 6.60 on hRNase-2; 5.89 on RNase A [2] (setting [5]); 3.66 at RNase A [2] (setting [6]); 6.62 on RNase A [2] (setting [7]). Moreover, the “protection of tRNA” value on RNase A [4] is given as “fully protecting”.

For the compound `Nc1ncnc2c1ncn2[C@@H]1O[C@H](COP(=O)(O)OP(=O)(O)O[C@H]2C[C@H](n3ccc(=O)[nH]c3=O)O[C@@H]2CO)[C@@H](O)[C@H]1OP(=O)(O)O` [dUppA2'p, 2'-deoxyuridine-(3'-Pβ)-5'-diphosphoadenosine-2'-phosphate], the pKi at RNase A [2] (setting [7]) was 6.18. Also, the “fold higher Ki than that for dUppAp” value on RNase A [2] (pH 5.9) came out at 5 fold.
